Data as given in patent US11357774B2, “Use of a quinoline sulfonyl compound for treatment of inflammation, inflammatory disorders, autoimmune disorders and malaria” (priority 2019, dated 2022).

Assays:
[1] = system: CQ-resistant P. falciparum ItG; assay: Anti-parasitic assay (SYBR Green I), ItG strain; format: cell-based; details: Plasmodium falciparum, 48 h
Protocol: The CQ-resistant P. falciparum ItG and the CQ-sensitive 3D7 strains were maintained and assays carried out as described previously^25. Briefly, P. falciparum strains were maintained in RPMI 1640 culture medium supplemented with 10% human serum, 25 mM HEPES, gentamicin, and 50 μM of hypoxanthine. The anti-parasitic assay was carried out as described previously^25. Briefly, a compound gradient was generated across a 96-well assay plate; a constant number of parasites added in 50 μL of the culture medium; allowed to grow for 48 hours; and followed by the measurement of DNA amounts (i.e., fluorescence) using SYBR Green I. The IC50 value is the 50% point between alive and dead for which a three-parameter fit was used.
VR23 is a derivative of CQ; a well-known anti-malarial drug. […] ItG and […] P. falciparum strains are CQ-resistant and CQ-sensitive strains, respectively. IC50 values were calculated by S.E.M (Table 2).

[2] = system: IL-1β, TNF-α, IL-6 and IL-8 secretion in THP-1 cells; assay: Cytokine secretion in LPS-stimulated THP-1 cells (ELISA); format: cell-based, human; details: THP-1, LPS 5 μg/mL, 6 hours
Protocol: For comparison, BTZ (6 nM), CFZ (1 nM), and DEX (2 μM) were also included. *, **, and *** are p<0.05, p<0.01, and p<0.001, respectively, which denote a significant difference from the LPS-only group. The mean±SEM (n=3) values were determined by a Dunnett's test.
(§1) The enzyme-linked immunosorbent assay (ELISA) is a quantitative measurement based on sandwich-based enzyme linking, using a protein-specific capture antibody to determine the levels of single or multiple chemokines and cytokines.
Data shown in FIG. 11 are the results of experiments carried out to investigate VR23's effect on the levels of inflammatory cytokines. […] For comparison, BTZ (6 nM), CFZ (1 nM) and DEX (2 μM) were also included. The levels of cytokine secreted in cell culture supernatants were measured by a single-analyte ELISA. The IC50 value of VR23 is 3 μM and the concentrations of BTZ, CFZ and DEX used are their respective IC50 values.

[3] = system: IL-6 secretion in SW-982 synovial cells; assay: IL-6 secretion in IL-1β-stimulated SW-982 synovial cells (ELISA); format: cell-based, human; details: SW-982, IL-1β 1 ng/mL, 6 hours; VR23 10 μM, HCQ 60 μM
Protocol: The mean±SEM (n=2) values were determined by a Dunnett's test.
as §1
The measurement was carried out with a single-analyte ELISA. […] While not wishing to be limited by theory, cytokine IL-6 is strongly implicated to the progress of rheumatoid arthritis^29.

[4] = system: myeloperoxidase (MPO) activity in right lung tissues; assay: Myeloperoxidase assay in lung tissues of mice with LPS-induced ALI; format: in vivo, mouse; details: LPS 0.4 mg/kg, 24 hours, VR23 30 mg/kg intraperitoneally
Protocol: Six to eight week old female BALB/c mice strain 028 (Charles River Laboratories, QC, Canada) were fed regularly with laboratory chow and water upon arrival at the Laurentian University Animal Care Facility (Sudbury, ON, Canada). To determine a useful dose of LPS, three mice per group were treated for 24 hours with the following three different conditions: (i) no LPS, (ii) 0.25 mg of LPS per kg of body weight, and (iii) 0.50 mg of LPS per kg of body weight. The different concentrations of LPS were administered intranasally to the three BALB/c mice per concentration. After the animals were sacrificed, the bronchoalveolar lavage fluid (BALF) of each mouse was collected and analyzed for LPS-induced inflammatory responses. […] Experimental design involving the use of VR23 was based on a previous acute lung injury (ALI) instillation by Wei and Huang^26. Briefly, mice were divided into 5 groups, with 3-5 mice per group: no lung injury (i.e., no treat), sham treated, LPS-only, LPS+DEX, and LPS+VR23. […] Bronchoalveolar lavage fluid was collected and the number of cells infiltrated into the bronchoalveolar fluid were counted (FIG. 2). […]
The accumulation of neutrophils in the lung tissues was analyzed with a colorimetric MPO assay kit (Sigma Aldrich), which measures the amount of myeloperoxidase activity^26. […] The MPO activity was then determined as per the protocol provided by the supplier. […]

HFLS-RA cell migration = assay: Cell migration assay (matrigel invasion chamber), HFLS-RA; format: cell-based, human; details: 24 hours, 5 μM or 10 μM
Protocol: The values presented are the mean±SEM (n=2).
Cell migration assays were performed with Corning invasion chambers with Matrigel matrix (Fisher Scientific). The lower chamber contained compounds (e.g., VR23 or HCQ) and FBS as a chemo-attractant. The upper chamber was loaded with cells in FBS-free medium. The analysis of the trans-well inserts were carried out as described previously^24. After 24 hours of incubation, the trans-well inserts were removed, and then the remaining media and cells on the upper chamber were also removed from the top of the membrane with a cotton swab. The trans-well inserts were placed into wells containing 1 mL of 70% ethanol for 10 minutes to fix the cells. The residual ethanol was carefully removed with a cotton swab. Cells on the trans-well insert membrane were then air-dried at room temperature for 15 minutes. The trans-well insert containing cells were placed in 1 mL of 0.2% crystal violet for 10 minutes to stain. The excessive crystal violet was carefully removed from the membrane with a cotton swab. Subsequently, cells on the trans-well membrane were air-dried at room temperature prior to analysis under an inverted microscope. Images (10×) were captured at 5 different fields. The average number of cells that migrated through the membrane towards the chemo-attractant were determined. […]

## O=[N+]([O-])c1ccc(S(=O)(=O)N2CCN(c3ccnc4cc(Cl)ccc34)CC2)c([N+](=O)[O-])c1 [VR23, 7-chloro-4-(4-(2,4-dinitrophenylsulfonyl)piperazin-1-yl)quinoline]
[1]
  IC50: 117 nM
[2]
  level of IL-6 in response to LPS: especially effective on reducing the level of IL-6
[2]; VR23 0.5, 1.0, 2, 3, 4 or 6 μM
  cytokine secretion, dose dependence: decreased cytokine secretion in a dose dependent manner
[2]; VR23 0.5-6 μM, BTZ 6 nM, CFZ 1 nM, DEX 2 μM
  levels of inflammatory cytokines IL-1β, TNF-α, IL-6, IL-8: substantial and comparable anti-inflammatory activities
[3]
  secretion of IL-6: substantially reduced the secretion of IL-6
[4]
  myeloperoxidase (MPO) in lung tissues: strong inhibitor of MPO
HFLS-RA cell migration
  cell migration promoted by 10% FBS: completely prevents cell migration
